Results as given in patent US7291627B2, “Dihydroimidazo[5.1-a]-beta-carboline derivatives, method for their preparation, and their application as a drug” (MACEF, priority 2001, dated 2007).

Experiments:
Beagle dogs = experiment: Polysomnographic study in the dog (EEG, 4 hours after oral gelule); type: in vivo; conditions: oral gelule; for Time passed at stage: Alertness / Time passed at stage: REM / Time passed at stage: SWS / Time passed at stage: Somnolence: four hours of monitoring
Method: (§1) The dihydroimidazo[5,1-a]-β-carboline derivatives of the invention, in particular those in the form of the methyl sulfonate, (soluble), were tested in chicks, and certain compounds that were active in the chick were administered in single doses to six Beagle dogs of both sexes for a polysomnographic study of at least 4 hours duration.
Polysomnographic tests were carried out for each of the three products from the series, on 6 dogs of both sexes, adults from the certified breeding kennels at HARLAN, 03 Gannat, using stainless steel electrodes surgically implanted for the duration of the test in contact with the frontal bones through the sinus, facing the motor regions of the encephalus. The Nishino et al method adapted by Tafani, Valin et al has been described elsewhere. It comprised recording two traces for eye movements, one trace for muscular movements (concentric electrode in the nape muscles) and two electroencephalographic (EEG) traces. The digital EEG trace was recorded using a Nicollet Schwarzer polygraph or the like (DELTAMED Coherence 2 and 3, MEI Galileo NT) for 4 hours after administering a 00 gelule containing 0, 16 or 48 mg of the test product (i.e. a mean of 0,1 and 3 mg/kg of live weight).
Each dog was monitored for 4 hours twice a day over two days, morning and afternoon, after one week's acclimatization to the monitoring cage, a 1 m^2, 80 cm high stainless steel cage of the SHOR-LINE type. For each dog, monitoring always commenced at the same time. A meal was distributed 30 minutes before starting monitoring.
The polysomnographic traces could differentiate between at least 4 stages for each consecutive 30 second period: awake, somnolence, slow sleep and paradoxal sleep. The latency of the appearance of each of the first nonalert episodes and the duration of each of the stages per 2 hour period were recorded for each dog. Comparing the means allowed the effect of the test products on the sleep microstructure to be studied.

JA 657 chicks = experiment: Chick sleep/sedation test (IM injection, 90 minute observation); type: in vivo; conditions: for Sed (sedation time as % of the period) / TA (time to torpor between injection and first stage of sleep) / TS (duration of the first sleep) / Tsed (total sedation time over the period): 90 min observation; for TS (mins) Placebo diff'ce: extension of first sleep compared with test controls
Method: as §1
JA 657 chicks from Couvoir Gauguet, 44 Le Pin, were accustomed for at least 6 days to an alternating program of light and darkness with 12 hours of daylight and 12 hours of darkness at a regulated temperature of 25±2° C. They were fed ad libitum and were placed under test compounds in a vivarium in groups of 3 individuals with a mean weight of 100±10 g on the day of the test. At that age in this species, there is no effective meningeal (hemato-encephalic) barrier. The test products were injected in 3 doses (1, 3 and 10 mg/kg) intramuscularly (IM) in solution or in an aqueous suspension (1 drop of Tween 80 per ml), each to two batches of 3 chicks which were observed over 90 minutes. For each test series (18 vivaria), there was at least one batch of negative control chicks receiving the same volume (0.2 ml IM) of water for injectable preparations.
During the 90 minute observation period, the chicks were strongly stimulated every 15 minutes by presenting a full feeding trough, and each 5 minute period was given a grade from among the following 5 states, corresponding to the state of alertness over that period:
Mobile, sitting alert, drowsy, asleep, sleep-like state. The parameters studied were the time to torpor (TA) passed between injection and the first stage of sleep, the duration of the first sleep (TS) and the total sedation time over the period (Tsed), expressed in minutes and as a % of the period (Sed).
To compare the results of tests carried out at different dates, the extension of the duration of the first sleep TS compared with the test controls was recorded.

| Structure (SMILES) | Sed (sedation time as % of the period) (JA 657 chicks; Dose: 1 mg/kg) | TA (time to torpor between injection and first stage of sleep) (JA 657 chicks; Dose: 1 mg/kg) | TS (duration of the first sleep) (JA 657 chicks; Dose: 1 mg/kg) | Tsed (total sedation time over the period) (JA 657 chicks; Dose: 1 mg/kg) | TS (mins) Placebo diff'ce (JA 657 chicks; Dose: 1 mg/kg) | Sed (sedation time as % of the period) (JA 657 chicks; Dose: 3 mg/kg) | TA (time to torpor between injection and first stage of sleep) (JA 657 chicks; Dose: 3 mg/kg) | TS (duration of the first sleep) (JA 657 chicks; Dose: 3 mg/kg) | Tsed (total sedation time over the period) (JA 657 chicks; Dose: 3 mg/kg) | TS (mins) Placebo diff'ce (JA 657 chicks; Dose: 3 mg/kg) | Sed (sedation time as % of the period) (JA 657 chicks; Dose: 10 mg/kg) | TA (time to torpor between injection and first stage of sleep) (JA 657 chicks; Dose: 10 mg/kg) | TS (duration of the first sleep) (JA 657 chicks; Dose: 10 mg/kg) | Tsed (total sedation time over the period) (JA 657 chicks; Dose: 10 mg/kg) | TS (mins) Placebo diff'ce (JA 657 chicks; Dose: 10 mg/kg) | other results |
| --- | --- | --- | --- | --- | --- | --- | --- | --- | --- | --- | --- | --- | --- | --- | --- | --- |
| COc1ccc2[nH]c3c(c2c1)CCn1c-3cnc1C.CS(=O)(=O)O [Example 2, 8-methoxy-3-methyl-5,6-dihydroimidazo[5,1-a]-β-carboline methane sulfonate] | 27.8% | 16 min | 3 min | 25 min | 3 min | 69.4% | 8.5 min | 41 min | 62.5 min | 41 min | 92.2% | 7 min | 83 min | 83 min | 83 min | Latency: Paradoxal (REM) sleep (Beagle dogs; 1 mg): 114 ± 53 min; Latency: Slow wave sleep (SWS) (Beagle dogs; 1 mg): 44 ± 16.3 min; Latency: Somnolence (Beagle dogs; 1 mg): 40 ± 14.7 min; Time passed at stage: Alertness (Beagle dogs; 1 mg): 136 ± 40.3 min; Time passed at stage: REM (Beagle dogs; 1 mg): 13.5 ± 10.6 min; Time passed at stage: SWS (Beagle dogs; 1 mg): 59 ± 20.5 min; Time passed at stage: Somnolence (Beagle dogs; 1 mg): 31 ± 4.6 min; Latency: Paradoxal (REM) sleep (Beagle dogs; 3 mg): 63 ± 21.1 min; Latency: Slow wave sleep (SWS) (Beagle dogs; 3 mg): 45 ± 5.4 min; Latency: Somnolence (Beagle dogs; 3 mg): 37 ± 6.7 min; Time passed at stage: Alertness (Beagle dogs; 3 mg): 123 ± 30.5 min; Time passed at stage: REM (Beagle dogs; 3 mg): 20 ± 9.5 min; Time passed at stage: SWS (Beagle dogs; 3 mg): 60 ± 26.9 min; Time passed at stage: Somnolence (Beagle dogs; 3 mg): 36 ± 15.4 min |
| CS(=O)(=O)O.Cc1ccc2[nH]c3c(c2c1)CCn1c-3cnc1C [Example 18, 3,8-dimethyl-5,6-dihydroimidazo[5,1-a]-β-carboline methane sulfonate] | 69.4% | 5 min | 32.5 min | 62.5 min | 24 min | 63.9% | 4.5 min | 30.5 min | 57.5 min | 22.5 min | 90.6% | 7.5 min | 76 min | 81.5 min | 68 min | – |
| COc1ccc2[nH]c3c(c2c1)CCn1cncc1-3 [Example 3, 8-methoxy-5,6-dihydroimidazo[5,1-a]-β-carboline] | 73.9% | 10 min | 40 min | 66.51 min | 36 min | 78.9% | 7 min | 66.5 min | 71.0 min | 62.5 min | 86.7% | 6.5 min | 77.5 min | 78.0 min | 73.5 min | – |
| CCn1c2c(c3cc(Cl)ccc31)CCn1c-2cnc1C.CS(=O)(=O)O [Example 17, 8-chloro-3-methyl-11-ethyl-5,6-dihydro-imidazo[5,1-a]-β-carboline methane sulfonate] | 41.1% | 12 min | 12 min | 37 min | 11.7 min | 33.3% | 7.5 min | 23.5 min | 30 min | 23 min | 67.2% | 5 min | 43.5 min | 60.5 min | 43 min | – |
| COc1ccc2[nH]c3c(c2c1)CCn1c(C)nc(-c2ccccc2)c1-3 [Example 4, 8-methoxy-3-methyl-1-phenyl-5,6-dihydro-imidazo[5,1-a]-β-carboline] | 58.9% | 16.5 min | 38 min | 53.01 min | 34 min | 72.8% | 14 min | 22.5 min | 65.5 min | 18.5 min | 90.6% | 8.5 min | 81.5 min | 81.5 min | 76.5 min | – |
| CS(=O)(=O)O.Cc1ncc2n1CCc1c-2n(C)c2ccc(Cl)cc12 [Example 16, 8-chloro-3,11-dimethyl-5,6-dihydroimidazo-[5,1-a]-β-carboline methane sulfonate] | 41% | 11.5 min | 15 min | 37 min | 14.7 min | 33.9% | 13.5 min | 20.5 min | 30.5 min | 20 min | 58.3% | 7.5 min | 31 min | 52.5 min | 52 min | – |
| CCCc1ncc2n1CCc1c-2n(C)c2ccc(OC)cc12.CS(=O)(=O)O [Example 8, 8-methoxy-11-methyl-3-propyl-5,6-dihydro-imidazo[5,1-a]-β-carboline methane sulfonate] | 42.2% | 16 min | 21.5 min | 38 min | 21 min | 60% | 8.5 min | 33 min | 54 min | 32.7 min | 76.1% | 5.5 min | 41 min | 68.5 min | 40.7 min | – |
| COc1ccc2[nH]c3c(c2c1)CCn1c-3cnc1C(C)C [Example 6, 8-methoxy-3-isopropyl-5,6-dihydroimidazo-[5,1-a]-β-carboline] | 73.3% | 11 min | 56.5 min | 65.97 min | 52.5 min | 80.6% | 12.5 min | 72.5 min | 72.5 min | 68.5 min | 82.2% | 12.5 min | 72.5 min | 74.0 min | 68.5 min | – |
